Experimental data as given in ChEMBL document CHEMBL1933028, “Discovery of cyclic amine-substituted benzoic acids as PPARα agonists” (Bioorg Med Chem Lett, 2012).

How the values were obtained:
[1] = tested on: Canis familiaris; assay: Antidyslipidemic activity in high-fat diet fed dog assessed as decrease in free fatty acid at 0.01 mg/kg, po administered QD for 1 week (reference value: 0.624 +/- 0.057 mEq/L); type: functional, Canis lupus familiaris
[2] = tested on: Canis familiaris; assay: Antidyslipidemic activity in high-fat diet fed dog assessed as decrease in total cholesterol at 0.03 mg/kg, po administered QD for 1 week (reference value: 205 +/- 6 mg/dL); type: functional, Canis lupus familiaris
[3] = Cmax in dog at 0.3 mg/kg, po; type: ADME, organism-based, Canis lupus familiaris; parameters: dose 0.3 mg/kg, route oral; details: in vivo
[4] = tested on: Canis familiaris; assay: Antidyslipidemic activity in high-fat diet fed dog assessed as decrease in non-HDL cholesterol at 0.03 mg/kg, po administered QD for 1 week (reference value: 75 +/- 5 mg/dL); type: functional, Canis lupus familiaris
[5] = target: T1, Peroxisome proliferator-activated receptor alpha (Rattus norvegicus, UniProt P37230); assay: Agonist activity at rat PPARalpha; type: functional
T1 sequence (P37230 whole entry): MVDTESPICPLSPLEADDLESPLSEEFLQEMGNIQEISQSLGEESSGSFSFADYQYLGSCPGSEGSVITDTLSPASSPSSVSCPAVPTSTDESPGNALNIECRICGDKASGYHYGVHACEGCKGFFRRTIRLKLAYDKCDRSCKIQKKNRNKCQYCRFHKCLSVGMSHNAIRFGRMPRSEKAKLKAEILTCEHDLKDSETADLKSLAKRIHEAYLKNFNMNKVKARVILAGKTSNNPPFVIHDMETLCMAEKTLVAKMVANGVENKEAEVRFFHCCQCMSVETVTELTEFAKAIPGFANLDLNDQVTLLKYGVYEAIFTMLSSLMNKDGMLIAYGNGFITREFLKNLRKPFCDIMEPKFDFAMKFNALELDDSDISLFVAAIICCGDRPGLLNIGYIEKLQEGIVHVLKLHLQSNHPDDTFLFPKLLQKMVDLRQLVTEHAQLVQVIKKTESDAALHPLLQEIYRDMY

[6] = tested on: Canis familiaris; assay: Antidyslipidemic activity in high-fat diet fed dog assessed as decrease in non-HDL cholesterol at 0.003 mg/kg, po administered QD for 1 week (reference value: 75 +/- 5 mg/dL); type: functional, Canis lupus familiaris
[7] = Total clearance in rat at 1 mg/kg, po; type: ADME, organism-based; parameters: dose 1 mg/kg, route oral; details: in vivo
[8] = tested on: Rattus norvegicus; assay: Volume of distribution at steady state in rat at 1 mg/kg, po; type: ADME, organism-based; parameters: dose 1 mg/kg, route oral; details: in vivo
[9] = target: T2, Peroxisome proliferator-activated receptor gamma (Canis lupus familiaris, UniProt Q4U3Q4); assay: Agonist activity at dog PPARgamma; type: functional
T2 sequence (Q4U3Q4 whole entry): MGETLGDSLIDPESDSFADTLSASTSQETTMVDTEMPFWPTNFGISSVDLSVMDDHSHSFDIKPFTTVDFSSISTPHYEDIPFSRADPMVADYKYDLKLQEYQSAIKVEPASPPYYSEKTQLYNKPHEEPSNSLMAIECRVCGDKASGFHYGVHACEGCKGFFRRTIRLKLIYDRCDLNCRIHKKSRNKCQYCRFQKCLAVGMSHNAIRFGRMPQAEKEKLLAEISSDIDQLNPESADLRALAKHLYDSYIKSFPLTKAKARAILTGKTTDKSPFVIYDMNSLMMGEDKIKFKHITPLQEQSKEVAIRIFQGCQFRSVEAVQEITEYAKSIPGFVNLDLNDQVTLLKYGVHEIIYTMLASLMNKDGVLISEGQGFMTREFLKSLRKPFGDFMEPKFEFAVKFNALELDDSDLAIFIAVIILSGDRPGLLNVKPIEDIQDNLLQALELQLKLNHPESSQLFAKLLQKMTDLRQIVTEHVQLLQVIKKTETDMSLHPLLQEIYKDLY

[10] = tested on: Canis familiaris; assay: Toxicity in high-fat diet fed dog assessed as change in body weight at 0.03 mg/kg, po administered QD for 1 week (reference value: 14.8 +/- 0.7 kg); type: organism-based, Canis lupus familiaris; parameters: dose 0.03 mg/kg, route oral; details: in vivo, 168 h
[11] = tested on: Canis familiaris; assay: Toxicity in high-fat diet fed dog assessed as effect on food intake at 0.03 mg/kg, po administered QD for 1 week (reference value: 3.67+/-0.09 kg); type: organism-based, Canis lupus familiaris; parameters: dose 0.03 mg/kg, route oral; details: in vivo, 168 h

For `Cc1nc(-c2ccc(Cl)cc2)sc1C(=O)N[C@H]1CCCN(c2cccc(C(=O)O)c2)C1`, the Activity [1] was 0.651 mEq/L, the Activity [2] was 169 mg/dL and the Cmax [3] was 295 ng/mL. The Activity [4] was 42 mg/dL, the EC50 [5] was 3.6 µM and the Activity [6] was 65 mg/dL. The CL/F [7] was 1.53 mL/min/kg, the Vdss [8] was 0.832 L/kg and the EC50 [9] was 11 µM. For the same compound, the Activity [10] was 14.8 kg and the Activity [11] was 3.51 kg.
